Patent US11213563B2, “Polypeptide and use thereof” (Genoimmune Therapeutics Co., Ltd., priority 2016, dated 2022)

How the values were obtained:
[1] = system: CD8^+ T cells; assay: IFN-γ ELISPOT of CD8+ T cell immune response activated by polypeptide; assay type: cell-based, human; conditions: for Conclusion (immunogenicity): ELISPOT spot ratio >2 criterion; for Number of spots produced by mutant polypeptide or each of its variants / Number of spots produced by wild-type polypeptide: IFN-γ ELISPOT, T cells activated by the listed polypeptide; for Number of spots produced by mutant polypeptide or each of its variants: T2 cells loaded with mutant polypeptide; for Number of spots produced by wild-type polypeptide: T2 cells loaded with wild-type polypeptide FILDGSYSV; for Ratio of mutant polypeptide to wild-type polypeptide: spot number ratio, >2 indicates immunogenicity
Description: The mutant polypeptide with immunogenicity should meet the following requirement:
Spots number of mutant polypeptide/spots number of wild-type polypeptide>2,
After specifically recognizing the complex of HLA-A0201 and the mutant polypeptide, the polypeptide specific-CD8^+T cell is activated and secretes IFN-γ, which will be captured by the firstly antibody coated on the ELISPOT plate and further be bound by an enzyme-coupled secondly antibody, and finally developed by addition of a substrate which can be catalyzed by the enzyme, thus forming colored spots. The number of spots produced represents the number of the IFN-γ secreted by the activated CD8^+T cell.

[2] = system: human non-small cell lung adenocarcinoma cell line H2087-polypeptide FILDGLYSV; assay: DC polypeptide vaccine in subcutaneous tumor-modeled NOD/SCID mice; assay type: in vivo; conditions: DCs loaded with the polypeptide, intracutaneous, 2 injections; vs DCs loaded with wild-type polypeptide
Protocol: (§1) After isolated with Ficoll solution from 600 to 900 ml anticoagulant peripheral blood from a healthy volunteer, the collected PBMCs in a concentration of 2×10^7 cells/0.5 ml were intraperitoneally injected into each of 300 NOD SCID mice without immune leakage, so as to reconstruct a human immune system in the NOD SCID mice, with the mice after 4 weeks selected for subsequent inoculation of the human non-small cell lung adenocarcinoma cell line H2087-polypeptide […] obtained in 6.2.
(§2) The human non-small cell lung adenocarcinoma cell line H2087-polypeptide […] (SEQ ID NO:1) obtained in 6.2 was incubated in DMEM medium containing 10% fetal calf serum, 100 U/mL penicillin and 100 U/mL streptomycin in an incubator under 37° C. and 5% CO2, and then the cells were centrifuged at 3000 rpm for collection. The collected cells were washed with sterile physiological saline three times, and then diluted appropriately. To 40 μl tumor cell suspension, 10 μl 0.4% […] was added for staining, subsequently the tumor cell suspension in a concentration of 1×10^8 cells/ml was prepared after counting under microscope. 100 μl of the tumor cell suspension was inoculated into each of the NOD/SCID mice by subcutaneous injection at 4 weeks post immune reconstruction in 6.3, with daily observation of the presence/absence of infection at inoculation sites, the increase/decrease of tumor size (in the case of presence of a tumor), and measurement of the major axis (a) and the minor axis (b) of a tumor by a vernier caliper every 2 or 3 days (where the tumor size=a×b×b/2). After 7 days from inoculation, a tumor in a size of rice grain was touchable at the inoculation site. After that, the subcutaneous tumor-modeled NOD/SCID mice (modeled with H2087-polypeptide […] (SEQ ID NO:1)) were treated with a polypeptide+complete Freund's adjuvant vaccine, a polypeptide+DCs vaccine, a lentivirus-infected DCs vaccine and a DC-CTL vaccine respectively, with the tumor size and mouse survival rate observed and recorded every 2 days.
Peripheral blood mononuclear cells (PBMCs) in 100 to 150 mL anticoagulant peripheral blood obtained from a healthy volunteer were isolated with Ficoll solution. The collected PBMCs suspended in the RPMI 1640 medium in a concentration of 2×10^6-3×10^6 cells/ml were incubated at 37° C. for 2 hours, obtaining adherent monocytes which can be induced into DCs, and non-adherent peripheral blood lymphocytes (PBLs) for use.
The subcutaneous tumor-modeled NOD/SCID mice obtained in 6.4 of the example were randomly divided into seven groups as below, with 6 mice per group.
For each of the above seven groups, DCs (respectively loaded with the wild-type polypeptide, the mutant polypeptide or each of five mutant polypeptide's variants) were washed with physiological saline three times and then diluted with the physiological saline to a concentration of (4.0±0.5)×10^7 cells/ml, and 0.1 ml of the resulting diluent (in a dosage of (4.0±0.5)×10^6 cells) was administrated to each inner thigh close to the inguen of each mouse by intracutaneous injection, at one week interval for 2 injections in total. The vital signs of the mice were observed after administration, and the major axis (a) and the minor axis (b) of a tumor were measured by a vernier caliper every 2 days for calculation of tumor size according to a formula of a×b×b/2, with the weight change and survival rate observed and recorded.

[3] = system: human non-small cell lung adenocarcinoma cell line H2087-polypeptide FILDGLYSV; assay: Lentivirus-infected DCs vaccine in subcutaneous tumor-modeled NOD/SCID mice; assay type: in vivo; conditions: DCs infected with lentivirus expressing the polypeptide, intracutaneous, 2 injections; vs wild-type lentivirus DCs
Protocol: as §1, §2
Peripheral blood mononuclear cells (PBMCs) in 100 to 150 mL anticoagulant peripheral blood obtained from a healthy volunteer were isolated with Ficoll solution. After the collected PBMCs were incubated at 37° C. for 2 hours and the non-adherent PBLs were removed, the adherent monocytes were cultured in the presence of recombinant human granulocyte macrophage colony stimulating factor (rhGM-CSF) and recombinant human interleukin-4 (rhIL-4). […] After 24 hours' incubation, the collected cells with lentivirus-containing medium removed were again incubated in a fresh medium containing 50 ng/ml rhIL-4, 100 ng/ml rh GM-CSF, 100 U/ml IFN-γ and 100 U/ml CD40L in an incubator under 37° C. and 5% CO2 for 48 to 72 hours, so as to induce mature DCs, and then the DCs infected with lentivirus were observed under the fluorescence microscope. The collected mature DCs were washed with physiological saline three times and diluted with the physiological saline to a concentration of (4.0±0.5)×10^7 cells/ml for use. The subcutaneous tumor-modeled NOD/SCID mice obtained in 6.4 of the example 6 were randomly divided into seven groups as below, with 6 mice per group.
The vital signs of the mice were observed after administration, and the major axis (a) and the minor axis (b) of a tumor were measured by a vernier caliper every 2 days for calculation of tumor size according to a formula of a×b×b/2, with the weight change and survival rate observed and recorded.

## FILDGLYSL [mutant polypeptide's variant, Leucine at position 9]
[1]
  Conclusion (immunogenicity): immunogenic
  Number of spots produced by mutant polypeptide or each of its variants: 313
  Number of spots produced by wild-type polypeptide: 37
  Ratio of mutant polypeptide to wild-type polypeptide: 8.46
[2]
  Mouse survival period: prolonging the mouse survival period
  Tumor growth: mitigating tumor growth significantly
[3]
  Mouse survival period: prolonging mouse survival period effectively
  Tumor growth: inhibiting tumor growth

## FILDGLYSV [mutant polypeptide from COL21A1, Serine at position 45 mutated into Leucine]
[1]
  Conclusion (immunogenicity): immunogenic
  Number of spots produced by mutant polypeptide or each of its variants: 296
  Number of spots produced by wild-type polypeptide: 29
  Ratio of mutant polypeptide to wild-type polypeptide: 10.2
[2]
  Mouse survival period: prolonging the mouse survival period
  Tumor growth: mitigating tumor growth significantly
[3]
  Mouse survival period: prolonging mouse survival period effectively
  Tumor growth: inhibiting tumor growth

## FLLDGLYSL [mutant polypeptide's variant, Leucine at positions 2 and 9]
[1]
  Conclusion (immunogenicity): immunogenic
  Number of spots produced by mutant polypeptide or each of its variants: 279
  Number of spots produced by wild-type polypeptide: 24
  Ratio of mutant polypeptide to wild-type polypeptide: 11.62
[2]
  Mouse survival period: prolonging the mouse survival period
  Tumor growth: mitigating tumor growth significantly
[3]
  Mouse survival period: prolonging mouse survival period effectively
  Tumor growth: inhibiting tumor growth

## FLLDGLYSV [mutant polypeptide's variant, Leucine at position 2]
[1]
  Conclusion (immunogenicity): immunogenic
  Number of spots produced by mutant polypeptide or each of its variants: 301
  Number of spots produced by wild-type polypeptide: 42
  Ratio of mutant polypeptide to wild-type polypeptide: 7.17
[2]
  Mouse survival period: prolonging the mouse survival period
  Tumor growth: mitigating tumor growth significantly
[3]
  Mouse survival period: prolonging mouse survival period effectively
  Tumor growth: inhibiting tumor growth

## FMLDGLYSL
[1]
  Conclusion (immunogenicity): immunogenic
  Number of spots produced by mutant polypeptide or each of its variants: 319
  Number of spots produced by wild-type polypeptide: 35
  Ratio of mutant polypeptide to wild-type polypeptide: 9.11
[2]
  Mouse survival period: prolonging the mouse survival period
  Tumor growth: mitigating tumor growth significantly
[3]
  Mouse survival period: prolonging mouse survival period effectively
  Tumor growth: inhibiting tumor growth

## FMLDGLYSV
[1]
  Conclusion (immunogenicity): immunogenic
  Number of spots produced by mutant polypeptide or each of its variants: 335
  Number of spots produced by wild-type polypeptide: 50
  Ratio of mutant polypeptide to wild-type polypeptide: 6.7
[2]
  Mouse survival period: prolonging the mouse survival period
  Tumor growth: mitigating tumor growth significantly
[3]
  Mouse survival period: prolonging mouse survival period effectively
  Tumor growth: inhibiting tumor growth
